Data from PubChem BioAssay (NCI).
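GI50 is the concentration that inhibits growth by half. TGI: total growth inhibition.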

Assays:
Assay in all cases: NCI-60 cell line screen, 384-well format
UACC-62 melanoma = system: UACC-62 melanoma
COLO 205 colon = system: COLO 205 colon
RPMI-8226 leukemia = system: RPMI-8226 leukemia
IGROV1 ovarian = system: IGROV1 ovarian
A498 renal = system: A498 renal
M14 melanoma = system: M14 melanoma
NCI-H522 lung = system: NCI-H522 lung
HCT-116 colon = system: HCT-116 colon
SF-268 CNS = system: SF-268 CNS
SK-MEL-28 melanoma = system: SK-MEL-28 melanoma
HS 578T breast = system: HS 578T breast
KM12 colon = system: KM12 colon
HL-60(TB) leukemia = system: HL-60(TB) leukemia
ACHN renal = system: ACHN renal
SK-MEL-2 melanoma = system: SK-MEL-2 melanoma
SW-620 colon = system: SW-620 colon
SNB-19 CNS = system: SNB-19 CNS
PC-3 prostate = system: PC-3 prostate
SF-295 CNS = system: SF-295 CNS
SF-539 CNS = system: SF-539 CNS
NCI-H226 lung = system: NCI-H226 lung
SK-MEL-5 melanoma = system: SK-MEL-5 melanoma
OVCAR-5 ovarian = system: OVCAR-5 ovarian
RXF 393 renal = system: RXF 393 renal
MDA-MB-468 breast = system: MDA-MB-468 breast
U251 glioblastoma = system: U251 glioblastoma
MDA-MB-435 melanoma = system: MDA-MB-435 melanoma
OVCAR-3 ovarian = system: OVCAR-3 ovarian
TK-10 renal = system: TK-10 renal
SNB-75 CNS = system: SNB-75 CNS
CCRF-CEM leukemia = system: CCRF-CEM leukemia
LOX IMVI melanoma = system: LOX IMVI melanoma
DU-145 prostate = system: DU-145 prostate
UACC-257 melanoma = system: UACC-257 melanoma
EKVX NSCLC = system: EKVX NSCLC
MOLT-4 leukemia = system: MOLT-4 leukemia
MDA-MB-231 breast = system: MDA-MB-231 breast
HOP-62 NSCLC = system: HOP-62 NSCLC
NCI-H23 lung = system: NCI-H23 lung
HT29 colon = system: HT29 colon
NCI-H322M lung = system: NCI-H322M lung
NCI/ADR-RES ovarian = system: NCI/ADR-RES ovarian
MCF7 breast = system: MCF7 breast
K-562 leukemia = system: K-562 leukemia
OVCAR-8 ovarian = system: OVCAR-8 ovarian
T-47D breast = system: T-47D breast
BT-549 breast = system: BT-549 breast
UO-31 renal = system: UO-31 renal
HCT-15 colon = system: HCT-15 colon
A549 NSCLC = system: A549 NSCLC
786-0 renal = system: 786-0 renal
MALME-3M melanoma = system: MALME-3M melanoma
SN12C renal = system: SN12C renal
HCC-2998 colon = system: HCC-2998 colon
SK-OV-3 ovarian = system: SK-OV-3 ovarian
CAKI-1 renal = system: CAKI-1 renal
OVCAR-4 ovarian = system: OVCAR-4 ovarian
HOP-92 NSCLC = system: HOP-92 NSCLC
NCI-H460 NSCLC = system: NCI-H460 NSCLC

Structure (SMILES): C[C@@H]1Cc2c([nH]c3ccccc23)[C@@H](c2c(F)cc(/C=C/C(=O)O)cc2F)N1CC(C)(C)F
- GI50 (UACC-62 melanoma): 15.7 µM
- TGI (UACC-62 melanoma): 29.4 µM
- GI50 (COLO 205 colon): 17.7 µM
- TGI (COLO 205 colon): 39.3 µM
- GI50 (RPMI-8226 leukemia): 11.4 µM
- TGI (RPMI-8226 leukemia): 23.6 µM
- GI50 (IGROV1 ovarian): 16.4 µM
- TGI (IGROV1 ovarian): 31.4 µM
- GI50 (A498 renal): 13.7 µM
- TGI (A498 renal): 32.4 µM
- GI50 (M14 melanoma): 15.7 µM
- TGI (M14 melanoma): 29.3 µM
- GI50 (NCI-H522 lung): 16.8 µM
- TGI (NCI-H522 lung): 30.8 µM
- GI50 (HCT-116 colon): 14.7 µM
- TGI (HCT-116 colon): 28.3 µM
- GI50 (SF-268 CNS): 16.3 µM
- TGI (SF-268 CNS): 30.9 µM
- GI50 (SK-MEL-28 melanoma): 17.4 µM
- TGI (SK-MEL-28 melanoma): 31.4 µM
- GI50 (HS 578T breast): 14 µM
- TGI (HS 578T breast): 27 µM
- GI50 (KM12 colon): 16.5 µM
- TGI (KM12 colon): 30.5 µM
- GI50 (HL-60(TB) leukemia): 17 µM
- TGI (HL-60(TB) leukemia): 30.8 µM
- GI50 (ACHN renal): 17.7 µM
- TGI (ACHN renal): 35.2 µM
- GI50 (SK-MEL-2 melanoma): 19.7 µM
- TGI (SK-MEL-2 melanoma): 34.2 µM
- GI50 (SW-620 colon): 16 µM
- TGI (SW-620 colon): 29.7 µM
- GI50 (SNB-19 CNS): 15.5 µM
- TGI (SNB-19 CNS): 32.2 µM
- GI50 (PC-3 prostate): 13.4 µM
- TGI (PC-3 prostate): 26.6 µM
- GI50 (SF-295 CNS): 16.4 µM
- TGI (SF-295 CNS): 30.5 µM
- GI50 (SF-539 CNS): 15 µM
- TGI (SF-539 CNS): 28.4 µM
- GI50 (NCI-H226 lung): 17.4 µM
- TGI (NCI-H226 lung): 32.6 µM
- GI50 (SK-MEL-5 melanoma): 13.9 µM
- TGI (SK-MEL-5 melanoma): 27.2 µM
- GI50 (OVCAR-5 ovarian): 19.2 µM
- TGI (OVCAR-5 ovarian): 34.3 µM
- GI50 (RXF 393 renal): 18.5 µM
- TGI (RXF 393 renal): 32.6 µM
- GI50 (MDA-MB-468 breast): 20.4 µM
- TGI (MDA-MB-468 breast): 40.2 µM
- GI50 (U251 glioblastoma): 11.9 µM
- TGI (U251 glioblastoma): 24.4 µM
- GI50 (MDA-MB-435 melanoma): 18.4 µM
- TGI (MDA-MB-435 melanoma): 32.9 µM
- GI50 (OVCAR-3 ovarian): 13.3 µM
- TGI (OVCAR-3 ovarian): 26.2 µM
- GI50 (TK-10 renal): 17.7 µM
- TGI (TK-10 renal): 35.2 µM
- GI50 (SNB-75 CNS): 17.5 µM
- TGI (SNB-75 CNS): 33.1 µM
- GI50 (CCRF-CEM leukemia): 13 µM
- TGI (CCRF-CEM leukemia): 25.8 µM
- GI50 (LOX IMVI melanoma): 17.2 µM
- TGI (LOX IMVI melanoma): 31.2 µM
- GI50 (DU-145 prostate): 15.9 µM
- TGI (DU-145 prostate): 35.5 µM
- GI50 (UACC-257 melanoma): 17.9 µM
- TGI (UACC-257 melanoma): 33.4 µM
- GI50 (EKVX NSCLC): 15.6 µM
- TGI (EKVX NSCLC): 31.4 µM
- GI50 (MOLT-4 leukemia): 11.8 µM
- TGI (MOLT-4 leukemia): 24.1 µM
- GI50 (MDA-MB-231 breast): 17.5 µM
- TGI (MDA-MB-231 breast): 31.6 µM
- GI50 (HOP-62 NSCLC): 10.2 µM
- TGI (HOP-62 NSCLC): 22.1 µM
- GI50 (NCI-H23 lung): 15.4 µM
- TGI (NCI-H23 lung): 29 µM
- GI50 (HT29 colon): 15.2 µM
- TGI (HT29 colon): 28.8 µM
- GI50 (NCI-H322M lung): 17.9 µM
- TGI (NCI-H322M lung): 38.1 µM
- GI50 (NCI/ADR-RES ovarian): 16.8 µM
- TGI (NCI/ADR-RES ovarian): 32 µM
- TGI (MCF7 breast): 18.9 µM
- GI50 (K-562 leukemia): 15.4 µM
- TGI (K-562 leukemia): 29.3 µM
- GI50 (OVCAR-8 ovarian): 14.9 µM
- TGI (OVCAR-8 ovarian): 28.6 µM
- GI50 (T-47D breast): 10.7 µM
- TGI (T-47D breast): 32.5 µM
- GI50 (BT-549 breast): 15.6 µM
- TGI (BT-549 breast): 29.2 µM
- GI50 (UO-31 renal): 13.9 µM
- TGI (UO-31 renal): 27.1 µM
- GI50 (HCT-15 colon): 14.3 µM
- TGI (HCT-15 colon): 27.8 µM
- GI50 (A549 NSCLC): 11.6 µM
- TGI (A549 NSCLC): 24.5 µM
- GI50 ([…]-0 renal): 14.1 µM
- TGI (786-0 renal): 27.7 µM
- GI50 (MALME-3M melanoma): 14.5 µM
- TGI (MALME-3M melanoma): 27.9 µM
- GI50 (SN12C renal): 17.3 µM
- TGI (SN12C renal): 32.3 µM
- GI50 (HCC-2998 colon): 15.3 µM
- TGI (HCC-2998 colon): 28.7 µM
- GI50 (SK-OV-3 ovarian): 19.4 µM
- TGI (SK-OV-3 ovarian): 39.2 µM
- GI50 (CAKI-1 renal): 17.1 µM
- TGI (CAKI-1 renal): 32.7 µM
- GI50 (OVCAR-4 ovarian): 12.8 µM
- TGI (OVCAR-4 ovarian): 33.5 µM
- GI50 (HOP-92 NSCLC): 14.5 µM
- TGI (HOP-92 NSCLC): 28 µM
- GI50 (NCI-H460 NSCLC): 15.3 µM
- TGI (NCI-H460 NSCLC): 29 µM
